Data taken from patent US20250144187A1, “COMBINATION OF HYDROLASES AND ANTI-MICROORGANISM DRUGS AND USES THEREOF” (CENTRE FOR EYE AND VISION RESEARCH LIMITED, priority 2023, published 2025).

Columns and labels:
[1] = system: MRSE; assay: High-throughput screening of 4989 compounds with human lysozyme; format: cell-based, Staphylococcus epidermis; settings: for MRSE Combination / MRSE Drug only: OD600 at 24-hour; for MRSE Combination: compound 2.5 μM + 1 mg/ml lysozyme; for MRSE Drug only: compound 2.5 μM without lysozyme
[2] = system: MRSA; assay: as above; format: cell-based, Staphylococcus aureus; settings: for MRSA Combination / MRSA Drug only: OD600 at 24-hour; for MRSA Combination: compound 2.5 μM + 1 mg/ml lysozyme; for MRSA Drug only: compound 2.5 μM without lysozyme; for MRSA Inhibition ratio (%): compound 2.5 μM + 1 mg/ml lysozyme relative to compound only
Method: 1) High-throughput screening. […] Specifically, these compounds were added into bacterial suspensions (1×10^6 CFU/ml) in the […] microliter plate, in which each well contained 50 μl of lysogeny broth (LB) medium with or without 1 mg/ml lysozyme. LB medium in the absence of bacteria served as background group. Then, the real-time growth curves of MRSA were monitored per hour and for 24 hours. Experiments were performed with the biological replicates. Fly analyzing the absorbance 600 nm (OD600) of bacterial culture at the time point of 24-hour, the inhibition ratio (%) was calculated according to (ODcontrol−ODsample)/(ODcontrol−ODbackground)×100%. Here, the relative and apparent inhibition ratios were figured out by using the absorbance of bacterial suspension only containing compound and that without any drug treatment as ODcontrol, respectively. The relative and apparent inhibition ratios indicated the combination effect and potential toxicity of compound in combination effect. Synergy effect was defined as the relative inhibition ratio of ≥90%.

[3] = system: MRSA; assay: High-throughput screening of 1953 FDA-approved compounds with human lysozyme; format: cell-based, Staphylococcus aureus; settings: compound 25 μM + 1 mg/ml lysozyme, 24-hour
Method: (§1) 1) High-throughput screening. According to standard screening method [Zhong. […] Commun. 11, 523 (2020)], 1953 FDA-approved compounds from our drugs library at a fixed concentrations of 25 μM were screened against methicillin-resistant Staphylococcus aureus (MRSA) and Staphylococcus epidermis (a coagulase negative Staphylococci, MRSE), in combination with human lysozyme. Specifically, these compounds were added into bacterial suspensions (1×10^5 CFU/ml, in LB medium) in the absence or presence of 1 mg/ml lysozyme. LB medium without bacteria served as background group. Then, the real-time growth curvet of MRSA were monitored per hour and for 24 hours. Absorbance at 600 am (OD600) of bacterial culture at the time point of 24-hour was also measured. The inhibition ratio (%) was calculated as (ODcontrol−ODsample)/(ODcontrol−ODbackground)×100%. […] Herein, the relative and apparent inhibition ratios indicated the combination effect and potential toxicity of compound, respectively. Synergy effect was defined as the relative inhibition ratio of ≥90%. All assays were performed in triplicate.

[4] = system: MRSE; assay: as above; format: cell-based, Staphylococcus epidermis; settings: compound 25 μM + 1 mg/ml lysozyme, 24-hour
Method: as §1

[5] = system: MRSA; assay: Check board broth micro-dilution assay, tedizolid phosphate with lysozyme; format: cell-based, Staphylococcus aureus; settings: cells incubated with the inhibitor
Method: 2) Check board broth micro-dilution assays. According to standard two-fold dilution method [Sun. H et al., Nat. Commun. 11, 5263 (2020) tedizolid phosphate at different concentrations were added into fresh LB medium (or trypticase soy troth medium with 5% defibrinated horse blood) containing different concentrations of human lysozyme in 96-well plate. Then, 20 μl of 1.0×10^7 CFU/ml logarithmic cultures of MRSA or MRSE were added into each well of the plate and co-incubated overnight. Drug-free LB medium in the absence or presence of bacteria served as background control and growth control group, respectively. […] Thus, there would be a series of FICI values. In most of cases, the lowest one among these values was listed to reflect the best achieving degree of combination therapy. In terms of the lowest FICI, FICI≤0.5, 0.5<FICI<1 or FICI≥1, would indicate the combination has synergy, part synergy or non-synergy effects, respectively.

Structure (SMILES)	Growth inhibition ratio (mean ± SD, %) MRSA [3] [%]	Growth inhibition ratio (mean ± SD, %) MRSE [4] [%]	also measured
CC(=O)c1c(O)cc(O)c(C(C)=O)c1O [2,4-Diacetylphloroglucinol]	–	–	MRSE Combination [1]: 0.0686; MRSE Drug only [1]: 0.09; MRSE Inhibition ratio (%) ([1]; compound 2.5 μM + 1 mg/ml lysozyme relative to compound only): 54.87%; MRSA Combination [2]: 0.0588; MRSA Drug only [2]: 0.2097; MRSA Inhibition ratio (%) [2]: 95.09%
COC(=O)[C@]12CCC(C)(C)C[C@H]1[C@H]1C(=O)C=C3[C@@]4(C)C=C(C#N)C(=O)C(C)(C)[C@@H]4CC[C@@]3(C)[C@]1(C)CC2 [Bardoxolone Methyl]	29.95 ± 40.66	81.67 ± 1.61	–
CC1(C)S[C@@H]2[C@H](NC(=O)Cc3ccccc3)C(=O)N2[C@H]1C(=O)O [Benzylpenicillin potassium]	48.39 ± 51.84	3.07 ± 4.93	–
N#CC(C#N)=NNc1cccc(Cl)c1 [CCCP, Carbonyl cyanide m-chlorophenyl hydrazone]	–	–	effect of ion-targeting inhibitor on FICI of tedizolid phosphate/lysozyme combination [5]: significant increase in FICI
CCCCCCNC(=O)n1cc(F)c(=O)[nH]c1=O [Carmofur]	82.5 ± 7.73	78.06 ± 11.38	–
CC/C=C(\C(=O)N[C@@H]1C(=O)N2C(C(=O)OCOC(=O)C(C)(C)C)=C(COC(N)=O)CS[C@H]12)c1csc(N)n1.Cl [Cefcapene Pivoxil Hydrochloride]	18.64 ± 7.49	3.23 ± 3.04	–
CO[C@@]1(NC(=O)CSCC#N)C(=O)N2C(C(=O)O)=C(CSc3nnnn3C)CS[C@@H]21 [Cefmetazole sodium]	58.25 ± 13.23	6 ± 29.05	–
CCN1CCN(C(=O)N[C@@H](C(=O)N[C@@H]2C(=O)N3C(C(=O)O)=C(CSc4nnnn4C)CS[C@H]23)c2ccc(O)cc2)C(=O)C1=O [Cefoperazone]	71.74 ± 5.27	−16.2 ± 8.93	–
CO/N=C(\C(=O)N[C@@H]1C(=O)N2C(C(=O)O)=C(Cn3ccc(=N)n3CCO)CS[C@H]12)c1csc(N)n1.O=S(=O)(O)O [Cefoselis Sulfate]	40.55 ± 6.2	51.56 ± 10.39	–
CC1=C(C(=O)O)N2C(=O)[C@@H](NC(=O)[C@H](N)C3=CCC=CC3)[C@H]2SC1 [Cefradine]	48.66 ± 13.26	33.52 ± 23.07	–
CC(C)(O/N=C(\C(=O)N[C@@H]1C(=O)N2C(C(=O)[O-])=C(C[n+]3ccccc3)CS[C@H]12)c1csc(N)n1)C(=O)O [Ceftazidime Pentahydrate]	45.07 ± 6.86	34.84 ± 3.23	–
CO/N=C(\C(=O)N[C@@H]1C(=O)N2C(C(=O)O)=C(CSc3nc(=O)c(=O)[nH]n3C)CS[C@H]12)c1csc(N)n1 [Ceftriaxone Sodium]	8.83 ± 1.45	34.56 ± 35.01	–
[H]/N=C(\N/C(=N/[H])NCCCCCCNC(=N)NC(=N)Nc1ccc(Cl)cc1)Nc1ccc(Cl)cc1 [Chlorhexidine 2HCl]	94.16 ± 0.25	12.3 ± 18.27	–
CNC[C@H](O)[C@@H](O)[C@H](O)[C@H](O)CO.Nc1nc(-n2cc(C(=O)O)c(=O)c3cc(F)c(N4CC(O)C4)c(Cl)c32)c(F)cc1F [Delafloxacin (meglumine)]	–	–	MRSE Combination [1]: 0.0639; MRSE Drug only [1]: 0.1374; MRSA Combination [2]: 0.0629; MRSA Drug only [2]: 0.177; MRSA Inhibition ratio (%) [2]: 90.56%
